Literature values as cited in PMC9851200, “Multiparameter phenotypic screening for endogenous TFEB and TFE3 translocation identifies novel chemical series modulating lysosome function” (Autophagy, 2022).

How the values were obtained:
Design in all cases: method as in original PKIS2 published data
[1] = target: kinases (KINOMEscan panel) (Homo sapiens, UniProt P48736); details: kinase PIK3CG; Published KINOMEscan; ref original PKIS2 published data; cited from earlier work
[2] = target: kinases (KINOMEscan panel) (Homo sapiens, UniProt P53350); details: PLK1; Published KINOMEscan; ref original PKIS2 published data; cited from earlier work
kinases (KINOMEscan panel) (Homo sapiens, UniProt P53350), sequence (P53350 whole entry): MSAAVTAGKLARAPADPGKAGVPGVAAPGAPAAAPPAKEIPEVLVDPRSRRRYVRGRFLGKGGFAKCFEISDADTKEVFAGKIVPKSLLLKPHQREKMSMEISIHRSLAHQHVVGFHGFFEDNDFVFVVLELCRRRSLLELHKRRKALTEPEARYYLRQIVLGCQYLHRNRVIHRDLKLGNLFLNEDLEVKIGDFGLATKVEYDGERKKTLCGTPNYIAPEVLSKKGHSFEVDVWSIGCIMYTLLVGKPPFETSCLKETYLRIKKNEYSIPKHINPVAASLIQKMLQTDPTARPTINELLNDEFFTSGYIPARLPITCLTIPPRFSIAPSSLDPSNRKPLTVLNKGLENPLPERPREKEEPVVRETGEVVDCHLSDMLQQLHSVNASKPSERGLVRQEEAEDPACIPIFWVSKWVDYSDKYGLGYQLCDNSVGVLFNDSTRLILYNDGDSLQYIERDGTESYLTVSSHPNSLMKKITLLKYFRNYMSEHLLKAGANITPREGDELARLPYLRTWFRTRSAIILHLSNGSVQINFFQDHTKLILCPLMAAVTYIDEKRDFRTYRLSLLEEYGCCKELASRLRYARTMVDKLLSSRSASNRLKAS

[3] = target: kinases (KINOMEscan panel) (Homo sapiens, UniProt Q14004); details: cited from earlier work
kinases (KINOMEscan panel) (Homo sapiens, UniProt Q14004), sequence (Q14004 whole entry): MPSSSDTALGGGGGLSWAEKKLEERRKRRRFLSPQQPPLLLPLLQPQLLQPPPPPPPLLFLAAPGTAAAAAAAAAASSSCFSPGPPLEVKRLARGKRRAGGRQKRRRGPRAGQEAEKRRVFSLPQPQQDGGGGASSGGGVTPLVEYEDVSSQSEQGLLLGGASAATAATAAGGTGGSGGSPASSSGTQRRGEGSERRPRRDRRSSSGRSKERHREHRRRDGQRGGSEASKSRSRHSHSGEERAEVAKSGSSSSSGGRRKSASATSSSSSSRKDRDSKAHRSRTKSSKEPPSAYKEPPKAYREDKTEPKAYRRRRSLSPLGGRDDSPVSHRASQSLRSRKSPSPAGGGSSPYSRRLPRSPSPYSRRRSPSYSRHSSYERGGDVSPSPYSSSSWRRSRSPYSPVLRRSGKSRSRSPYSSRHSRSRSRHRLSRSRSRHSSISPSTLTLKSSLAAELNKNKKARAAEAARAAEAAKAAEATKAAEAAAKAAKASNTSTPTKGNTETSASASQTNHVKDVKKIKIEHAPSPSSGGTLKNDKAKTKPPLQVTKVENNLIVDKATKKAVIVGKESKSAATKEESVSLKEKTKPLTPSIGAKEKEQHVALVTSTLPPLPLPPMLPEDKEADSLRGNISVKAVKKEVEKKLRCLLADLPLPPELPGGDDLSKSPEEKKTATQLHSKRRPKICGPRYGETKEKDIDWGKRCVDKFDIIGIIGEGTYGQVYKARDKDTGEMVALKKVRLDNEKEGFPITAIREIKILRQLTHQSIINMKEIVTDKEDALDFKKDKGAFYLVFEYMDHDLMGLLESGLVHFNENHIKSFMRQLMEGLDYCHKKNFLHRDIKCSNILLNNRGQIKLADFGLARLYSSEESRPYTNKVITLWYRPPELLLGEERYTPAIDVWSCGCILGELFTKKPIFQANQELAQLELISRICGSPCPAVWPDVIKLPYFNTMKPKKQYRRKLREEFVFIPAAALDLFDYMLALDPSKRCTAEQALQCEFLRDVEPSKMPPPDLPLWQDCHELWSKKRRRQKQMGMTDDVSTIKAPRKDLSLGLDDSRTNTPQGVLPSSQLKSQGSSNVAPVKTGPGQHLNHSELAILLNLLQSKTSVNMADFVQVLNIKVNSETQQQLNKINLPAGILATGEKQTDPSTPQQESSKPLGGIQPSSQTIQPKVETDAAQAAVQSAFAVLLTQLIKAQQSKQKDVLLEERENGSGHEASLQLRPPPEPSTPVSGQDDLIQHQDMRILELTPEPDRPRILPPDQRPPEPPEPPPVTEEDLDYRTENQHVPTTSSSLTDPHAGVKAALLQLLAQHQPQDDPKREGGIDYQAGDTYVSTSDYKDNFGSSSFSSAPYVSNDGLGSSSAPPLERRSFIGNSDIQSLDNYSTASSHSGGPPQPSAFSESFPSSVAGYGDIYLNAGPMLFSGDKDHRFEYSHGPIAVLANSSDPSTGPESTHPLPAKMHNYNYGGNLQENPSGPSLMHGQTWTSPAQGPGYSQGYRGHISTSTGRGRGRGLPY

[4] = target: kinases (KINOMEscan panel) (Homo sapiens, UniProt P27037); details: ACVR2A; Published KINOMEscan; ref original PKIS2 published data; cited from earlier work
kinases (KINOMEscan panel) (Homo sapiens, UniProt P27037), sequence (P27037 20-513): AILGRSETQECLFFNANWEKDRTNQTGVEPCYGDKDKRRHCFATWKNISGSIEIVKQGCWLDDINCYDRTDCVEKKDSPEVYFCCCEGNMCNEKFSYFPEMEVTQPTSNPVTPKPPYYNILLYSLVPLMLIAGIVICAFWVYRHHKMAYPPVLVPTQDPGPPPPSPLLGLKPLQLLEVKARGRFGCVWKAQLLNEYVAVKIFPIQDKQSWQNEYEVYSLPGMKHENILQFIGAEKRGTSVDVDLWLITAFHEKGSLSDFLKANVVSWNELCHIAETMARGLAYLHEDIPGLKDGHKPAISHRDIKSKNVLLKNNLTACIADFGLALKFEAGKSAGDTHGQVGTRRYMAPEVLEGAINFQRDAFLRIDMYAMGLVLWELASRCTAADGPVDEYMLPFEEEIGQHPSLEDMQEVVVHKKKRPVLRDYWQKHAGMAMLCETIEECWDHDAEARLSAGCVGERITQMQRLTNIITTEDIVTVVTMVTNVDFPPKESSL

[5] = target: kinases (KINOMEscan panel) (Homo sapiens, UniProt P22455); details: Published KINOMEscan; ref original PKIS2 published data; cited from earlier work
[6] = target: T1, kinases (KINOMEscan panel) (Homo sapiens, UniProt Q99640); details: kinase PKMYT1; Published KINOMEscan; ref original PKIS2 published data; cited from earlier work
T1 sequence (Q99640 1-499): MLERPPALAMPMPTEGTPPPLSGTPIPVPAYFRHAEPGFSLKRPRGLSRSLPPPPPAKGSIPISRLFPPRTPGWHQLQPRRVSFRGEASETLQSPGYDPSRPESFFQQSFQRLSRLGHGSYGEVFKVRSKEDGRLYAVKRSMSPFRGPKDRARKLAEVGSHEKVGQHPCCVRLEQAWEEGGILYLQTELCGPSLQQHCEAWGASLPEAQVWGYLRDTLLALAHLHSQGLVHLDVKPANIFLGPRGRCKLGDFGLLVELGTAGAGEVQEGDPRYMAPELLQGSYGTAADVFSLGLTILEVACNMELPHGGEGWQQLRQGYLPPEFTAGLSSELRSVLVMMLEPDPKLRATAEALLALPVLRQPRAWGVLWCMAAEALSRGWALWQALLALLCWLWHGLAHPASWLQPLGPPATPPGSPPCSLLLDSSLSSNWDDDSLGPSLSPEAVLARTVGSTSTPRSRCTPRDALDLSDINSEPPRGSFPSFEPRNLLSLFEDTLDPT

[7] = target: kinases (KINOMEscan panel) (Homo sapiens, UniProt P16591); details: FER; Published KINOMEscan; ref original PKIS2 published data; cited from earlier work
kinases (KINOMEscan panel) (Homo sapiens, UniProt P16591), sequence (P16591 whole entry): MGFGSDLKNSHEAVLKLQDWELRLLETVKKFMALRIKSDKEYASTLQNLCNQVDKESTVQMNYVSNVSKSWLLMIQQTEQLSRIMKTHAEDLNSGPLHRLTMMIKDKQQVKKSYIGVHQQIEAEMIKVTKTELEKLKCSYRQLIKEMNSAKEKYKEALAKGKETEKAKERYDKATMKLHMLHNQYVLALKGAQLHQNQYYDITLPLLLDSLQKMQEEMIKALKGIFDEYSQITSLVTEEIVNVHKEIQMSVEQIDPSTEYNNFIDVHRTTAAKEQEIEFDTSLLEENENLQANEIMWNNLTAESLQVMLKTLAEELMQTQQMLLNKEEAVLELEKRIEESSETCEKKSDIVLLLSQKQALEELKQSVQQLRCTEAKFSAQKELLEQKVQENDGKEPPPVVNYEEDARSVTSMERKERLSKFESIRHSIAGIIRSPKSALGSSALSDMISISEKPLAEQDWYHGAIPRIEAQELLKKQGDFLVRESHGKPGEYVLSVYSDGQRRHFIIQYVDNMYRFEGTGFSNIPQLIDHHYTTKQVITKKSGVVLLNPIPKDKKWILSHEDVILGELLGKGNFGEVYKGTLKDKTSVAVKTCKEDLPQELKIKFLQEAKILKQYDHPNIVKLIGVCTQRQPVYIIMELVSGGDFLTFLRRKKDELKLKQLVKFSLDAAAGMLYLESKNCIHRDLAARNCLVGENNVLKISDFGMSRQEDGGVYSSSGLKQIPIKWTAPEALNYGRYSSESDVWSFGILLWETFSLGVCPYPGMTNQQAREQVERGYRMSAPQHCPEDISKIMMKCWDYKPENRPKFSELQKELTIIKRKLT

[8] = target: kinases (KINOMEscan panel) (Homo sapiens, UniProt Q15569); details: TESK1; Published KINOMEscan; ref original PKIS2 published data; cited from earlier work
[9] = target: kinases (KINOMEscan panel) (Homo sapiens, UniProt O95819); details: MAP4K4; Published KINOMEscan; ref original PKIS2 published data; cited from earlier work
[10] = target: T2, kinases (KINOMEscan panel) (Homo sapiens, UniProt Q13976); details: kinase PRKG1; Published KINOMEscan; ref original PKIS2 published data; cited from earlier work
T2 sequence (Q13976 1-671): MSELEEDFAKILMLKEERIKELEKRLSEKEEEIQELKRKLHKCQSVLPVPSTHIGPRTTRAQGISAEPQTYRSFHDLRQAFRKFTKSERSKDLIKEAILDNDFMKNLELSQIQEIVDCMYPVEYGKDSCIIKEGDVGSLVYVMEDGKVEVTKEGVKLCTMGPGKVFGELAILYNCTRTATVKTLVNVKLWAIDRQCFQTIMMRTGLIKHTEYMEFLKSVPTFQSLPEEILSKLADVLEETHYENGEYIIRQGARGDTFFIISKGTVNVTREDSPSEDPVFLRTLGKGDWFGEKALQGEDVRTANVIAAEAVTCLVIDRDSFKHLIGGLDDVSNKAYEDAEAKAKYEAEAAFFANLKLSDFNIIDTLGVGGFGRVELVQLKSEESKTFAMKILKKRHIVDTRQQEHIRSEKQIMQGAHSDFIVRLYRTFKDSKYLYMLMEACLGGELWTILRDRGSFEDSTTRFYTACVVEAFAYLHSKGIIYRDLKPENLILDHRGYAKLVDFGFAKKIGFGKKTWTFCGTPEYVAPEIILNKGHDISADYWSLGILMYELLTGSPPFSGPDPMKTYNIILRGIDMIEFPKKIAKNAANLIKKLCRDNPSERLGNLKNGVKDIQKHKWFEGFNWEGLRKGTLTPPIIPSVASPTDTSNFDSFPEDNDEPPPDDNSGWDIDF

[11] = target: T3, kinases (KINOMEscan panel) (Homo sapiens, UniProt O14757); details: CHEK1; Published KINOMEscan; ref original PKIS2 published data; cited from earlier work
T3 sequence (O14757 1-476): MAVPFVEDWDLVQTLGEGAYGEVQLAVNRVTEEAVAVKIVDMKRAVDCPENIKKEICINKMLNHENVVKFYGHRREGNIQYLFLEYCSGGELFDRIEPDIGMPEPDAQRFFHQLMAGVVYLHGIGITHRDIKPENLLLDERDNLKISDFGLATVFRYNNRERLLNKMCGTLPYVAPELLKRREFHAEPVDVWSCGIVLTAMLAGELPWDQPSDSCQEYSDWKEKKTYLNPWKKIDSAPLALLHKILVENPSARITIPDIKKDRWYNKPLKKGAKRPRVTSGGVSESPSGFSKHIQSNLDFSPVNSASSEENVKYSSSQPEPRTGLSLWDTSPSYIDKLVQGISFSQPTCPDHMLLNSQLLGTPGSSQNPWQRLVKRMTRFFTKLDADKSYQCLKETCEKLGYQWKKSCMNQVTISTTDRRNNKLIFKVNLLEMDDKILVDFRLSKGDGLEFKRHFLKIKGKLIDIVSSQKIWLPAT

kinases (KINOMEscan panel) (Homo sapiens, UniProt P48736), sequence (P48736 whole entry): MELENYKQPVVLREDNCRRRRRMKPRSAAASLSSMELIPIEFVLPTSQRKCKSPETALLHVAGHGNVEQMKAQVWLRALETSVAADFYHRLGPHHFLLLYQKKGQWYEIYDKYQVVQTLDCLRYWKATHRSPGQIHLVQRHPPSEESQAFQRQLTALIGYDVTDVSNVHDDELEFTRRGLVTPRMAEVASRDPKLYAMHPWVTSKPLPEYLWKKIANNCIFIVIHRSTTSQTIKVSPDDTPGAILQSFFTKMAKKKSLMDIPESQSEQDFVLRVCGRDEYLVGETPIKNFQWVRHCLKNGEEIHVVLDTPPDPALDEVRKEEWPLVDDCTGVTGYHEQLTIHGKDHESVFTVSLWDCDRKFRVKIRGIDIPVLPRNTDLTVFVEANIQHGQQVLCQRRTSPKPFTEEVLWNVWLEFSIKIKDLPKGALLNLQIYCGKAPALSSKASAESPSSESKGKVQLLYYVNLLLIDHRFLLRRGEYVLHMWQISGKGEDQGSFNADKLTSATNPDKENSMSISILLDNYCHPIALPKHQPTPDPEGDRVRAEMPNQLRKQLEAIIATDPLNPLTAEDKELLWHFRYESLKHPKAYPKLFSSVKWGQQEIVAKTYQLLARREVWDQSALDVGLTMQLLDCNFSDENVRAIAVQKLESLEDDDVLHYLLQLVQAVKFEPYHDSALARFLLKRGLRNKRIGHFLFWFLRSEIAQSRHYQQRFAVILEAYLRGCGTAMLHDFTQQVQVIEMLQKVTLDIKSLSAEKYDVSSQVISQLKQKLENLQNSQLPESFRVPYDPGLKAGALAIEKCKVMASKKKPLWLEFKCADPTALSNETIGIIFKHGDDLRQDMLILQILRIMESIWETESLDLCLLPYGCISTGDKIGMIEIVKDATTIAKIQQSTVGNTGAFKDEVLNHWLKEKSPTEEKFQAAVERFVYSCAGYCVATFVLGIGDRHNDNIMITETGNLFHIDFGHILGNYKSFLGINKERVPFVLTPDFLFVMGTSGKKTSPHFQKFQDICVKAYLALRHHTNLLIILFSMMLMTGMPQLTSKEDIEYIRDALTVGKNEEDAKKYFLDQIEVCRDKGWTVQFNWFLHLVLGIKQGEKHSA

SMILES: Cc1cccc(-c2nc(Nc3ccncc3)c3ccccc3n2)n1 [NK215]
- KINOMEscan PIK3CG [1]: 0
- KINOMEscan PLK1 [2]: 6
- KINOMEscan CDK13 [3]: 0
- KINOMEscan ACVR2A [4]: 24
- KINOMEscan FGFR4 [5]: 6
- KINOMEscan PKMYT1 [6]: 0
- KINOMEscan FER [7]: 0
- KINOMEscan TESK1 [8]: 14
- KINOMEscan MAP4K4 [9]: 0
- KINOMEscan PRKG1 [10]: 7
- KINOMEscan CHEK1 [11]: 0
